Test results from US10828303B2, “Composition comprising combination of TRH analog with arundic acid, and pharmaceutically acceptable salt of arundic acid” (Brivention Pharmaceutical (Shanghai) Inc., priority 2016, dated 2020).
Entries after “also recorded” stand apart in the source; their conditions may differ. Read-outs that look alike come from different tables or passages of the source.

How the values were obtained:
[1] = Approximate solubility by manual dilution and visual observation; format: physicochemical; settings: 25° C.; for solubility: thermodynamic from solid, read-out: Solubility at 25° C. S
Protocol: The approximate solubility of the calcium salt in different solvents at 25° C. was tested by manual dilutions in combination with visual observation.

[2] = Crystal polymorph screening by the heating method; format: physicochemical; settings: open vial, oven 60° C. or 80° C.
Protocol: 30 mg of the compound of Synthesis Example 12 was placed in an open vial, and incubated in an oven heated to 60° C. or 80° C. for 19 hours or for 91 hours. After completion of the incubation, XRPD analysis and polarizing microscope observation were performed. FIG. 26 and FIG. 27 show the results.

[3] = tested on: patients with Alzheimer's disease or patients with cerebrovascular dementia; settings: reported in literature; cited from earlier work

Row | Structure (SMILES) | solubility ([1]; 2-propanol (printed 2-Promanol), organic solvent or mixture, 2-Promanol) | Solubility in words ([1]; different solvents) | solubility ([1]; organic solvent or mixture, Acetone) | solubility ([1]; organic solvent or mixture, CAN) | solubility ([1]; organic solvent or mixture, EA) | solubility ([1]; organic solvent or mixture, Ethanol) | solubility ([1]; organic solvent or mixture, MEK) | solubility ([1]; organic solvent or mixture, MtBE) | solubility ([1]; organic solvent or mixture, THF) | solubility ([1]; Water) | Changes in morphology or XRPD pattern on heating ([2]; 19 hours) | Morphological changes on heating ([2]; 91 hours) | Effect on arousal, mood, semantic memory in patients [3]
1 | CCCCCC[C@@H](CCC)C(=O)[O][Ca][O]C(=O)[C@@H](CCC)CCCCCC [Compound of Synthesis Example 12, calcium (R)-2-propyloctanoate (S)-2-propyloctanoate] | > 210 mg/mL | poorly soluble in water; also recorded: dissolved in ethanol, 2-propanol, MtBE, EA, and THF | < 1.7 mg/mL | < 1.5 mg/mL | > 199 mg/mL | > 185 mg/mL | 94.4 to 189 mg/mL | > 215 mg/mL | > 198 mg/mL | < 1 mg/mL | no changes in morphology or XRPD pattern were observed | no morphological changes of the compound were observed | 
2 | NC(=O)[C@@H]1CCCN1C(=O)[C@H](Cc1cnc[nH]1)NC(=O)[C@@H]1CCC(=O)N1 [TRH] |  |  |  |  |  |  |  |  |  |  |  |  | improve the level of arousal, mood, semantic memory
